Like-named read-outs stand apart in the source and are kept apart here.
Columns and labels:
Assay type in all cases: biochemical
[1] = target: T1, human recombinant Monoacylglycerol Lipase (Homo sapiens, UniProt Q99685); assay: MAGL inhibition enzymatic assay, fluorogenic substrate 7-HCA, IC50 at T=0 min or after 30 minute incubation (T=30 min); settings: geometric mean of 2-4 determinations unless otherwise indicated
T1 sequence (Q99685 1-303): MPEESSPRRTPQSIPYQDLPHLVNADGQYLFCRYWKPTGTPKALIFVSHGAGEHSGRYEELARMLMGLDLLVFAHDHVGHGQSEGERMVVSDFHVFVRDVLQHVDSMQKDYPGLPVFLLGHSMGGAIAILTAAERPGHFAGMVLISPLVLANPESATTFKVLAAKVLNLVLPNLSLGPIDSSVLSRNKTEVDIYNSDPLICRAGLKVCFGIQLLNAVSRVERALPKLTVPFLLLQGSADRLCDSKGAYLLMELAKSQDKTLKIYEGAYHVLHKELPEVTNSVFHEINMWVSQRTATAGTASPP
Protocol: An equal volume of 7-HCA in assay buffer with 10% DMSO was added either immediately (T=0 min) or after a 30 minute incubation (T=30 min) to initiate the reaction. […] After these dilutions, the final concentration of the test compound ranged from 3 μM to 0.03 nM. […] IC50 values were generated based on a four parameter fit model using ABASE software from IDBS.

[2] = target: T1, human recombinant Monoacylglycerol Lipase; assay: MAGL inactivation, enzyme progress curves, kinact/KI; settings: from enzyme progress curves, T = 0 min protocol; geometric mean of 2-4 determinations unless otherwise indicated
Summary of the method: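 Human recombinant MAGL ([…]) with compound, 7-HCA substrate (final 5 μM) added immediately (T=0 min), in pH 7.4 HEPES buffer with 0.1% Triton X-100 and 25% glycerin. Fluorescence (Ex/Em 340/465) was read every minute over 60 min, giving progress curves at decreasing compound concentrations (final 3 μM to 0.03 nM).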

human recombinant FAAH = target: T2, human recombinant FAAH (Homo sapiens, UniProt O00519); assay: FAAH inhibition enzymatic assay, fluorescent substrate Arachidonoyl-AMC, 30 minute incubation; settings: T = 30 min (30 minute incubation); geometric mean of 2-4 determinations unless otherwise indicated
T2 construct: purchased Cayman 10010183
T2 sequence (O00519 1-579): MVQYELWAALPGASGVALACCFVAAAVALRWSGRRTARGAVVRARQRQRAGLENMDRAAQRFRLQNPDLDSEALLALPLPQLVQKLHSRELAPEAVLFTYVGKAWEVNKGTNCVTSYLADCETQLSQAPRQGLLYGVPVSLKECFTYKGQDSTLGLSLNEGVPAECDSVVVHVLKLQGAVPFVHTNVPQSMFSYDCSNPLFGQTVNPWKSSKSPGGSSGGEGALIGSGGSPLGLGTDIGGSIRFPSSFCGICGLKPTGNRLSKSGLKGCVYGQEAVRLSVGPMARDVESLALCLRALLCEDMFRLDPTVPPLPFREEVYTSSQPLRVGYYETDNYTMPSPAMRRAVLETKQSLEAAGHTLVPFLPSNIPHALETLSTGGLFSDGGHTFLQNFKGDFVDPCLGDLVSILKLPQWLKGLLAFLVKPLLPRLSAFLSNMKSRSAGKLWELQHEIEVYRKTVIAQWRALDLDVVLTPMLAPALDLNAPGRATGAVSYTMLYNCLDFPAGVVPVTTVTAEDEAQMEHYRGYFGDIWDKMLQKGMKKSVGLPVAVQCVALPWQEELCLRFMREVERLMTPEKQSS
Protocol: Assessment of FAAH inhibition utilizes human recombinant FAAH and the fluorescent substrate, Arachidonoyl-AMC. 400 nL of a test compound at decreasing concentrations was spotted into a 384-well back plate (PerkinElmer, 6007279) using a Labcyte Echo, followed by addition of 10 μl of FAAH enzyme (Cayman 10010183) in assay buffer (50 mM Tris, pH 9.0, 1 mM EDTA). After a 30 minute incubation at room temperature, 10 μL of Arachidonyl-AMCA was added in assay buffer with 16% DMSO. Final concentration of FAAH enzyme was 0.0125 Units and AAMCA substrate was used at the Km of 5 μM. […] The reaction was allowed to progress for 60 minutes, after which the plate was read on a Molecular Devices FlexStation reader at an Ex/Em of 355/460. Percent inhibitions were calculated based on controls wells containing either no compound (0% inhibition) or a control compound (e.g., an FAAH inhibitor whose activity is known or was previously reported in the literature, such as one with about 100% inhibition). IC50 values were generated based on a four parameter fit model using ABASE software from IDBS.

[3] = T = 0 min (substrate added immediately), read-out: MAGL (T = 0 min) IC50
[4] = T = 30 min (30 minute incubation), read-out: MAGL (T = 30 min) IC50

| Structure (SMILES) | IC50 [1, 3] [nM] | IC50 [1, 4] [nM] | MAGL kinact/KI [2] | IC50 (human recombinant FAAH) [nM] |
| --- | --- | --- | --- | --- |
| O=C(O[C@H](CO)C(F)(F)F)N1CCC2(CCCN(S(=O)(=O)c3ccc(F)cc3)C2)CC1 [Example 12, (2R)-1,1,1-Trifluoro-3-hydroxypropan-2-yl 2-[(4-fluorophenyl)sulfonyl]-2,9-diazaspiro[5.5]undecane-9-carboxylate] | 188 | 17 | 1801 1/s per M | > 30000 |
| O=C(O[C@H](CO)C(F)(F)F)N1CCC2(CC1)CC(Oc1ccccn1)CO2 (single isomer, unassigned) [Example 130] | 76 | 6 | 12483 1/s per M | 25700 |
| CN([C@H]1COC2(CCN(C(=O)O[C@H](CO)C(F)(F)F)CC2)C1)S(=O)(=O)c1nccs1 [Example 136] | 52 | 5 | 15516 1/s per M | > 30000 |
| O=C(OC(C(F)(F)F)C(F)(F)CO)N1CCC2(CC1)CN(S(=O)(=O)c1ccc(F)cc1)CCO2 (racemic) [Example 19, 1,1,1,3,3-Pentafluoro-4-hydroxybutan-2-yl 4-[(4-fluorophenyl)sulfonyl]-1-oxa-4,9-diazaspiro[5.5]undecane-9-carboxylate] | 95 | 8 | 2397 1/s per M | > 30000 |
| CN(C1COC2(CCN(C(=O)O[C@H](CO)C(F)(F)F)CC2)C1)S(=O)(=O)c1cccnc1 (mixture of isomers) [Example 114] | 163 | 15 | 6263 1/s per M | > 30000 |
| CN(C(=O)c1ccccc1)C1COC2(CCN(C(=O)O[C@H](CO)C(F)(F)F)CC2)C1 (single isomer, unassigned) [Example 99] | 107 | 11 | 16883 1/s per M | > 30000 |
| O=C(O[C@H](CO)C(F)(F)F)N1CCC(c2ccn(-c3ccc(F)cc3)n2)CC1 [Example 2, (2R)-1,1,1-Trifluoro-3-hydroxypropan-2-yl 4-[1-(4-fluorophenyl)-1H-pyrazol-3-yl]piperidine-1-carboxylate] | 56 | 8 | 6109 1/s per M | 1140 |
| CN(C1COC2(CCN(C(=O)O[C@H](CO)C(F)(F)F)CC2)C1)S(=O)(=O)C1CCCC1 (mixture of isomers) [Example 112] | 64 | 7 | 14232 1/s per M | > 30000 |
| CCN([C@H]1COC2(CCN(C(=O)O[C@H](CO)C(F)(F)F)CC2)C1)S(=O)(=O)c1ccccc1 [Example 92, (2R)-1,1,1-Trifluoro-3-hydroxypropan-2-yl (3R)-3-[ethyl(phenylsulfonyl)amino]-1-oxa-8-azaspiro[4.5]decane-8-carboxylate] | 6 | 1 | 215500 1/s per M | > 30000 |
| O=C(O[C@H](CO)C(F)(F)F)N1CCC(Oc2ncc(C(F)(F)F)cc2Cl)CC1 [Example 63] | 7 | 1 | 7347 1/s per M | 3010 |
| O=C(O[C@H](CO)C(F)(F)F)N1CCC2(CC1)CC(c1ccc(F)nc1)CO2 (mixture of isomers) [Example 120] | 166 | 21 | 1516 1/s per M | > 30000 |

More lines, in order of falling IC50 [1, 3], values ahead:

| IC50 [1, 3] [nM] | IC50 [1, 4] [nM] | MAGL kinact/KI [2] | IC50 (human recombinant FAAH) [nM] | Structure (SMILES) |
| --- | --- | --- | --- | --- |
| 341 | 27 | 2917 1/s per M | > 30000 | CN(C1COC2(CCN(C(=O)O[C@H](CO)C(F)(F)F)CC2)C1)S(=O)(=O)c1cncnc1 (mixture of isomers) [Example 115] |
| 180 | 21 | 2454 1/s per M | 6540 | O=C(O[C@H](CO)C(F)(F)F)N1CCC2(CC1)CC(N1Cc3ccccc3S1(=O)=O)CO2 (mixture of isomers) [Example 101, (2R)-1,1,1-trifluoro-3-hydroxypropan-2-yl 3-(1,1-dioxido-1,2-benzothiazol-2(3H)-yl)-1-oxa-8-azaspiro[4.5]decane-8-carboxylate] |
| 153 | 15 | 3058 1/s per M | > 30000 | CC(C)CS(=O)(=O)N(C)[C@H]1COC2(CCN(C(=O)O[C@H](CO)C(F)(F)F)CC2)C1 [Example 139] |
| 132 | 12 | 3736 1/s per M | 13200 | O=C(O[C@@H]([C@@H](O)C(F)(F)F)C(F)(F)F)N1C[C@@H]2[C@H](C1)[C@H]2c1ccn(-c2ccc(F)cc2)n1 (racemic) [Example 36] |
| 84 | 9 | 3961 1/s per M | > 30000 | CN(C(=O)C1CCC1)[C@H]1COC2(CCN(C(=O)O[C@H](CO)C(F)(F)F)CC2)C1 [Example 142] |
| 62 | 5 | 18560 1/s per M | 9520 | O=C(O[C@H](CO)C(F)(F)F)N1CCC2(CC1)CC(c1ccccc1)CO2 (single isomer, unassigned) [Example 96] |
| 57 | 5 | 6754 1/s per M | > 30000 | O=C(O[C@H](CO)C(F)(F)F)N1CCC2(CC1)C[C@H](NS(=O)(=O)c1ccccc1)CO2 [Example 8, (2R)-1,1,1-Trifluoro-3-hydroxypropan-2-yl (3S)-3-[(phenylsulfonyl)amino]-1-oxa-8-azaspiro[4.5]decane-8-carboxylate] |
| 56 | 6 | 16586 1/s per M | > 30000 | C#Cc1ccc(S(=O)(=O)N2CCOC3(CCN(C(=O)O[C@H](CO)C(F)(F)F)CC3)C2)cc1 [Example 68] |
| 56 | 5 | 7262 1/s per M | > 30000 | O=C(O[C@H](CO)C(F)(F)F)N1CCC2(CC1)CN(S(=O)(=O)c1ccc(F)c(F)c1)CCO2 [Example 52] |
| 51 | 3 | 15960 1/s per M | 10700 | CN(C1COC2(CCN(C(=O)O[C@H](CO)C(F)(F)F)CC2)C1)S(=O)(=O)c1cccc(F)c1 (single isomer, unassigned) [Example 108] |
| 29 | 3 | 29124 1/s per M | > 24100 | O=C(O[C@H](CO)C(F)(F)F)N1CCC2(CC1)CN(S(=O)(=O)c1ccccc1)CCO2 [Example 7, (2R)-1,1,1-Trifluoro-3-hydroxypropan-2-yl 4-(phenylsulfonyl)-1-oxa-4,9-diazaspiro[5.5]undecane-9-carboxylate] |
| 7 | 1 | 126124 1/s per M | 7920 | C#Cc1ccc(-n2ccc(C3CCN(C(=O)O[C@H](CO)C(F)(F)F)CC3)n2)cc1 [Example 80] |
| 6 | 1 | 16865 1/s per M | 2580 | CC(C)Oc1ccc(S(=O)(=O)N2CCOC3(CCN(C(=O)O[C@H](CO)C(F)(F)F)CC3)C2)cc1 [Example 78] |

— patent US10723711B2, “1,1,1-trifluoro-3-hydroxypropan-2-yl carbamate derivatives and 1,1,1-trifluoro-4-hydroxybutan-2-yl carbamate derivatives as MAGL inhibitors” (PFIZER INC., priority 2015, dated 2020)
